Experimental data reported in patent US12054487B2, “Muscarinic acetylcholine M1 receptor antagonists” (Contineum Therapeutics, Inc., priority 2018, dated 2024).

How the values were obtained:
Format in all cases: cell-based
M3 = M3 (Homo sapiens, UniProt P20309); experiment: In vitro functional assay of muscarinic acetylcholine receptor activity, M3; conditions: antagonist activity; M3 method not separately described
Experimental: [The procedure below names another target; the source lists this target under the same test.] (§1) CHO-K1 cells stably expressing human M1 receptor with Aequorin (Perkin Elmer) were grown in F12 media, 10% FBS with 0.4 mg/mL geneticin and […]. Cells were grown to confluence and frozen down to be assayed at a later date. On the day of the experiment cells were thawed in a 37° C. water bath, resuspended in DMEM/HAM's F12 with HEPES (Invitrogen)+0.1% protease-free BSA (assay buffer), and spun down to remove freezing media. After centrifugation, supernatant was removed and 12 mL of assay buffer was added. Coelenterazine h (Promega) was added to the cells at a final concentration of 5 uM and incubated for 4 hours at room temperature in the dark. Compound master plate-96 deep well (Corning) were formatted in a 8-point DRC in assay buffer with 0.2% DMSO at a starting concentration of 60 uM (2×). After 4 hours of incubation, cells were plated at a concentration of 5×10^5 cells/well in 96 well white-walled, tissue culture-treated, clear-bottom plates (VWR). Compounds were added to the daughter plate, and cells plus compound were incubated at room temperature for 30 minutes in the dark.
(§2) Calcium flux was measured using the FlexStation 3 (Molecular Devices). To measure the antagonist dose-response, the EC80 of Acetylcholine was injected to the daughter plate using the automated compound transfer function of the Flex Station, and the increase in luminescence was measured over time. Antagonist activity was analyzed as a concentration dependent decrease in the EC80 acetylcholine response. Dose response curves were generated using Prism (GraphPad Software). The IC50 of the compounds was calculated from the dose response curve.

M2 = molecular target: T1, M2 (Homo sapiens, UniProt P08172); experiment: In vitro functional assay of muscarinic acetylcholine receptor activity, M2; conditions: antagonist activity; M2 method not separately described
T1 sequence (P08172 1-466): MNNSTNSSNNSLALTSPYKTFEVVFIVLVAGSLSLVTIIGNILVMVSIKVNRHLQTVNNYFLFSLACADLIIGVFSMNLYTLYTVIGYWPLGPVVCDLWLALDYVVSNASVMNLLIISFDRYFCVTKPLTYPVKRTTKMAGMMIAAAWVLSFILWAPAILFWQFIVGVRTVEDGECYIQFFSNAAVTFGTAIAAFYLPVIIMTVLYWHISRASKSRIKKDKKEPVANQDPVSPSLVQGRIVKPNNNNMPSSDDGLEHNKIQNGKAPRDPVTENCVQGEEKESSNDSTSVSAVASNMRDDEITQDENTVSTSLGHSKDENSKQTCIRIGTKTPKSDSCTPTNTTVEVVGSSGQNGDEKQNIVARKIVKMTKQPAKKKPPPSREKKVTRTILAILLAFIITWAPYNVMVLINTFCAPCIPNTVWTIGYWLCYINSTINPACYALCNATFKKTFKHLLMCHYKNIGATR
Experimental: [The procedure below names another target; the source lists this target under the same test.] as §1, §2

human M1 receptor = molecular target: T2, human M1 receptor (Homo sapiens, UniProt P11229); experiment: In vitro functional assay of muscarinic acetylcholine receptor activity (aequorin calcium flux, antagonist mode vs EC80 acetylcholine), M1; conditions: CHO-K1 cells stably expressing human M1 receptor with Aequorin; decrease in EC80 acetylcholine response
T2 construct: host or cells: CHO-K1
T2 sequence (P11229 1-460): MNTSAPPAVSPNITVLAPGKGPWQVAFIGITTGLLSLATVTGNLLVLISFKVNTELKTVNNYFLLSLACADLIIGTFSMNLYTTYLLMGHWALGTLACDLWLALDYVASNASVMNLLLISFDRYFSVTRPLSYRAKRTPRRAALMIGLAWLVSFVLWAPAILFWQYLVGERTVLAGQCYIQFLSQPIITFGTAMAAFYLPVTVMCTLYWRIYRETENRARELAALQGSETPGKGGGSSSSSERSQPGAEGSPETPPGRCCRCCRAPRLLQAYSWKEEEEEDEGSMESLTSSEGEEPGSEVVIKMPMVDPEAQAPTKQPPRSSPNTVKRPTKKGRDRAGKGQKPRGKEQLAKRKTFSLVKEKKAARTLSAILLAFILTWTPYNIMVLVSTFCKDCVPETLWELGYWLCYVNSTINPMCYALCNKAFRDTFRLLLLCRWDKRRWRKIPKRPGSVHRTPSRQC
Experimental: as §1, §2

Chain of M3 (P20309 whole entry): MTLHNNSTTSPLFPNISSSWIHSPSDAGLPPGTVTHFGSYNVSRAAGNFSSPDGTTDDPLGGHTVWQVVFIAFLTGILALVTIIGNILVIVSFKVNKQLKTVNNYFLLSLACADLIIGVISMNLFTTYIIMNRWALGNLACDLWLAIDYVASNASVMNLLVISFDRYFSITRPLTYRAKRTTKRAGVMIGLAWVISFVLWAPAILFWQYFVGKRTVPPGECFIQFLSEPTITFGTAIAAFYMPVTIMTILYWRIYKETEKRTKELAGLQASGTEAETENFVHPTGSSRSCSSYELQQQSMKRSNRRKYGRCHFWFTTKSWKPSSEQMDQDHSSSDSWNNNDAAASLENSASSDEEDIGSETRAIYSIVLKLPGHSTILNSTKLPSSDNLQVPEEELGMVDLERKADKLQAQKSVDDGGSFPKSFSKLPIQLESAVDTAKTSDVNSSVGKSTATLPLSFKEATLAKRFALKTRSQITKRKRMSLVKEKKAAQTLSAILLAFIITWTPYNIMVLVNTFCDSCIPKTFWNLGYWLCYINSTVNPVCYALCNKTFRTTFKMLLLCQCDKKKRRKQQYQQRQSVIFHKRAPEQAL

Structure (SMILES) | IC50 (M3) | IC50 (M2) | IC50 (human M1 receptor)
O=C1[C@@H](CCCc2cccc3ncnn23)C[C@H]2CN(c3ccc(Cl)cn3)CCN12 [Example 34, (7S,8aS)-7-(3-([1,2,4]triazolo[1,5-a]pyridin-5-yl)propyl)-2-(5-chloropyridin-2-yl)hexahydropyrrolo[1,2-a]pyrazin-6(2H)-one] | 1000 to 10000 nM | 1000 to 10000 nM | < 100 nM
N#Cc1ccc(N2CCN3C(=O)[C@@H](CCCc4cccc5ncnn45)C[C@H]3C2)nc1 [Example 4, 6-((7S,8aS)-7-(3-([1,2,4]triazolo [1,5-a]pyridin-5-yl)propyl)-6-oxohexahydropyrrolo [1,2-a]pyrazin-2(1H)-yl)nicotinonitrile] | 100 to 1000 nM | 100 to 1000 nM | < 100 nM
N#Cc1ccc(N2CCN3C(=O)[C@@H](CCCc4cccc(F)c4C4CC4)C[C@H]3C2)nc1 [Example 25, 6-((7S,8aS)-7-(3-(2-cyclopropyl-3-fluorophenyl)propyl)-6-oxohexahydropyrrolo[1,2-a]pyrazin-2(1H)-yl)nicotinonitrile] | 100 to 1000 nM | 1000 to 10000 nM | < 100 nM
O=C1[C@H](CCCc2cccc3ncsc23)C[C@@H]2CN(c3ccncc3F)CCN12 [Example 8, (7R,8aR)-7-(3-(benzo[d]thiazol-7-yl)propyl)-2-(3-fluoropyridin-4-yl)hexahydropyrrolo[1,2-a]pyrazin-6(2H)-one] | > 10000 nM | > 10000 nM | > 10000 nM
O=C1[C@@H](CCCc2cccc3ncsc23)C[C@H]2CN(c3ccncc3F)CCN12 [Example 2, (7S,8a5)-7-(3-(benzo [d]thiazol-7-yl)propyl)-2-(3-fluoropyridin-4-yl)hexahydropyrrolo[1,2-a]pyrazin-6(2H)-one] | 1000 to 10000 nM | 1000 to 10000 nM | < 100 nM
CS(=O)(=O)c1ccc(N2CCN3C(=O)[C@@H](CCCc4cccc5ncsc45)C[C@H]3C2)nc1 [Example 13, (7S,8aS)-7-(3-(benzo[d]thiazol-7-yl)propyl)-2-(5-(methylsulfonyl)pyridin-2-yl)hexahydropyrrolo[1,2-a]pyrazin-6(2H)-one] | 100 to 1000 nM | 100 to 1000 nM | < 100 nM
N#Cc1ccc(N2CCN3C(=O)[C@@H](CCCc4cccn5ncnc45)C[C@H]3C2)nc1 [Example 68, 6-((7S,8aS)-7-(3-([1,2,4]triazolo[1,5-a]pyridin-8-yl)propyl)-6-oxohexahydropyrrolo[1,2-a]pyrazin-2(1H)-yl)nicotinonitrile] | < 100 nM | 100 to 1000 nM | < 100 nM
N#Cc1ccc(N2CCN3C(=O)[C@@H](CCCc4cccc5c4CCC5)C[C@H]3C2)nc1 [Example 18, 6-((7S,8aS)-7-(3-(2,3-dihydro-1H-inden-4-yl)propyl)-6-oxohexahydropyrrolo[1,2-a]pyrazin-2(1H)-yl)nicotinonitrile] | > 10000 nM | 1000 to 10000 nM | 1000 to 10000 nM
COc1ccc(N2CCN3C(=O)[C@@H](CCCc4cccc5ncnn45)C[C@H]3C2)cn1 [Example 38, (7S,8aS)-7-(3-([1,2,4]triazolo[1,5-a]pyridin-5-yl)propyl)-2-(6-methoxypyridin-3-yl)hexahydropyrrolo[1,2-a]pyrazin-6(2H)-one] | > 10000 nM | > 10000 nM | 1000 to 10000 nM
N#Cc1ccc(N2CCN3C(=O)[C@@H](CCCc4cccc5ncccc45)C[C@H]3C2)nc1 [Example 59, 6-((7S,8aS)-6-oxo-7-(3-(quinolin-5-yl)propyl)hexahydropyrrolo[1,2-a]pyrazin-2(1H)-yl)nicotinonitrile] | 1000 to 10000 nM | 100 to 1000 nM | < 100 nM
Cn1cnc2cccc(CCC[C@H]3C[C@H]4CN(c5ccc(C#N)cn5)CCN4C3=O)c21 [Example 54, 6-((7S,8aS)-7-(3-(1-methyl-1H-benzo[d]imidazol-7-yl)propyl)-6-oxohexahydropyrrolo[1,2-a]pyrazin-2(1H)-yl)nicotinonitrile] | 1000 to 10000 nM | 100 to 1000 nM | < 100 nM
O=C1[C@@H](CCCc2cccc3ncsc23)C[C@H]2CN(c3cccnc3)CCN12 [Example 26, (7S,8aS)-7-(3-(benzo[d]thiazol-7-yl)propyl)-2-(pyridin-3-yl)hexahydropyrrolo[1,2-a]pyrazin-6(2H)-one] | 1000 to 10000 nM | > 10000 nM | 100 to 1000 nM
O=C1[C@@H](CCCc2cccc3ncnn23)C[C@H]2CN(c3ccc(C(F)(F)F)cn3)CCN12 [Example 32, (7S,8aS)-7-(3-([1,2,4]triazolo[1,5-a]pyridin-5-yl)propyl)-2-(5-(trifluoromethyl)pyridin-2-yl)hexahydropyrrolo[1,2-a]pyrazin-6(2H)-one] | 1000 to 10000 nM | 100 to 1000 nM | < 100 nM
N#Cc1ccc(N2CCN3C(=O)[C@@H](CCCc4cccc5ncsc45)C[C@H]3C2)nc1 [Example 10, 6-((7S,8aS)-7-(3-(benzo[d]thiazol-7-yl)propyl)-6-oxohexahydropyrrolo[1,2-a]pyrazin-2(1H)-yl)nicotinonitrile] | 1000 to 10000 nM | 100 to 1000 nM | < 100 nM
N#Cc1ccc(N2CCN3C(=O)[C@@H](CCCc4ccc5c(c4)CCO5)C[C@H]3C2)nc1 [Example 20, 6-((7S,8aS)-7-(3-(2,3-dihydrobenzofuran-5-yl)propyl)-6-oxohexahydropyrrolo[1,2-a]pyrazin-2(1H)-yl)nicotinonitrile] | 1000 to 10000 nM | 1000 to 10000 nM | 100 to 1000 nM
N#Cc1ccc(N2CCN3C(=O)[C@@H](CCCc4cccn5ncnc45)C[C@H]3C2)cn1 [Example 67, 5-((7S,8aS)-7-(3-([1,2,4]triazolo[1,5-a]pyridin-8-yl)propyl)-6-oxohexahydropyrrolo[1,2-a]pyrazin-2(1H)-yl)picolinonitrile] | < 100 nM | 100 to 1000 nM | < 100 nM
O=C1[C@@H](CCCc2cccc3ncnn23)C[C@H]2CN(c3ccc(F)cc3)CCN12 [Example 47, (7S,8aS)-7-(3-([1,2,4]triazolo[1,5-a]pyridin-5-yl)propyl)-2-(4-fluorophenyl)hexahydropyrrolo[1,2-a]pyrazin-6(2H)-one] | > 10000 nM | > 10000 nM | 100 to 1000 nM
Cc1ccc(N2CCN3C(=O)[C@@H](CCCc4cccc5ncnn45)C[C@H]3C2)nn1 [Example 48, (7S,8aS)-7-(3-([1,2,4]triazolo[1,5-a]pyridin-5-yl)propyl)-2-(6-methylpyridazin-3-yl)hexahydropyrrolo[1,2-a]pyrazin-6(2H)-one] | 1000 to 10000 nM | 1000 to 10000 nM | < 100 nM
COc1cc(N2CCN3C(=O)[C@@H](CCCc4cccc5ncnn45)C[C@H]3C2)ccn1 [Example 37, (7S,8aS)-2-(2-methoxypyridin-4-yl)-7-(3-{[1,2,4]triazolo[1,5-a]pyridin-5-yl}propyl)-octahydropyrrolo[1,2-a]pyrazin-6-one] | 1000 to 10000 nM | 1000 to 10000 nM | < 100 nM
O=C1C(CCCc2cccc3ncnn23)C[C@H]2CN(c3ccc(F)cn3)CCN12 (single isomer, unassigned) [Example 50] | > 10000 nM | > 10000 nM | 100 to 1000 nM
O=C1[C@@H](CCCc2cccc3nccn23)C[C@H]2CN(c3ccncc3F)CCN12 [Example 3, (7S,8aS)-2-(3-fluoropyridin-4-yl)-7-(3-(imidazo[1,2-a]pyridin-5-yl)propyl)hexahydropyrrolo[1,2-a]pyrazin-6(2H)-one] | 1000 to 10000 nM | > 10000 nM | 100 to 1000 nM
